Data set [1] relates to highly emetogenic chemotherapy (HEC)-induced nausea and vomiting. Kind of data set: Phase 2 clinical efficacy study, netupitant + palonosetron + dexamethasone. The arrangement: Total Control, Overall: percent of patients / Total Control, Acute: percent of patients / Total Control, Delayed: percent of patients / Complete Protection, Overall: percent of patients / Complete Protection, Acute: percent of patients / Complete Protection, Delayed: percent of patients: concentration or dose not given beside the values. It is filed as in vivo, human. The conditions noted are these: MFAS, Group 1 (Palo alone) / Group 5 (Aprepitant Regimen). The source says: A phase 2 trial evaluated three single doses of netupitant combined with palonosetron and dexamethasone compared to palonosetron alone and dexamethasone to obtain dose ranging information for netupitant used with oral palonosetron in the CINV patient population.
The objective of the study was to compare the efficacy and safety of three single oral doses of netupitant combined with oral palonosetron and given with dexamethasone, versus oral palonosetron-alone given with dexamethasone (without netupitant) for the prevention of highly emetogenic chemotherapy (HEC)-induced nausea and vomiting. The FDA-approved oral aprepitant regimen given with IV ondansetron and dexamethasone was included in the study as an active comparator for exploratory purposes. The FDA-approved oral palonosetron 0.5 mg. dose was used in each applicable treatment group in this study.
This was a multicenter, randomized, double-blind, double-dummy, parallel group, stratified study. Eligible patients were randomized (stratified by gender) to one of the following treatment groups: • Group 1—0.5 mg. oral palonosetron on Day 1 (with an oral dexamethasone standard regimen: 20 mg. on Day 1 and 8 mg. BID from Day 2 through Day 4) • Group 2—100 mg. oral netupitant plus 0.5 mg. oral palonosetron on Day 1 (with an oral dexamethasone adjusted regimen*: 12 mg. on Day 1 and 8 mg. daily from Day 2 through Day 4) • Group 3—200 mg. oral netupitant plus 0.5 mg. oral palonosetron on Day 1 (with an oral dexamethasone adjusted regimen*: 12 mg. on Day 1 and 8 mg. daily from Day 2 to Day 4) • Group 4—300 mg. oral netupitant plus 0.5 mg. oral palonosetron on Day 1 (with dexamethasone adjusted regimen*: 12 mg. on Day 1 and 8 mg. daily from Day 2 to Day 4) • Group 5—125 mg. oral aprepitant plus IV ondansetron 32 mg. (both on Day 1) then 80 mg. oral aprepitant on Day 2 and Day 3, (all with an oral dexamethasone adjusted regimen: 12 mg. on Day 1 and 8 mg. daily from Day 2 through Day 4)
The primary efficacy endpoint was the complete response rate (defined as no emetic episodes, no rescue medication) within 120 hours after the start of the highly emetogenic chemotherapy administration. Secondary efficacy endpoints were: • Complete response for the 0-24 hour interval (acute phase); and for the 25-120 hour interval (delayed phase); • Complete protection (defined as no emesis, no rescue therapy, no significant nausea); Total control (defined as no emesis, no rescue therapy and no nausea); No nausea (maximum VAS<5 mm); No significant nausea (maximum VAS<25 mm); No rescue medication; No emesis. These endpoints were evaluated for the 0-120 hour interval (overall), acute and delayed phase. • Time to first emetic episode, Time to first rescue medication, Time to treatment failure (based on time to the first emetic episode or time to the first rescue medication, whichever occurs first); • Severity of nausea for the overall, acute and delayed phase; ● Patient global satisfaction with anti-emetic therapy by means of VAS for each 24 hour interval.

Data set [2] can be described thus: Pharmacokinetics of combined dosage form: randomized, open, 3-way crossover study. It is filed as in vivo. The conditions noted are these: human, plasma palonosetron, oral palonosetron 0.75 mg single dose, fasting, median (range). On the procedure: The effects of palonosetron on the pharmacokinetics (PK) of netupitant and the effects of netupitant on the PK of palonosetron were examined in healthy volunteers. A randomized, open, 3-way crossover study was conducted. Each subject participated in 3 treatment periods, each lasting approximately 12 days (Day −1 to Day 11). The treatment periods were separated by wash-out periods of no less than 14 days (between Day 1 of any 2 consecutive treatment periods). Treatment A: oral netupitant 450 mg. administered as single dose of three 150 mg. capsules. Treatment B: oral palonosetron 0.75 mg. and oral netupitant 450 mg. administered simultaneously as three capsules of 150 mg. netupitant followed by 1 capsule of 0.75 mg. palonosetron. Treatment C: oral palonosetron 0.75 mg. administered as single dose as one 0.75 mg. capsule. Doses were administered under fasting conditions. Subjects fasted over-night for approximately 10 hours. Water, however, was permitted up to 1 hour pre-dose. Food intake was permitted 4 hours post-dose, and water was allowed ad libitum 1 hour post-dose. Doses were administered with the subject in an upright position. The subjects remained in an upright position for 4 hours post-dose. The capsules were swallowed whole with 250 mL of room-temperature tap water. Repeated PK blood sampling (for netupitant and/or palonosetron) was performed. The primary PK variables assessed for netupitant and palonosetron were the maximum plasma concentration observed (Cmax), the area under the plasma concentration versus time curve from time zero to the last quantifiable sampling time point (t) (AUC0-t), and the area under the plasma concentration versus time curve from time zero to infinity (AUC0-inf). The secondary PK variables assessed were the terminal elimination half-life (t1/2, z), and the time at which the maximum plasma concentration was observed (tmax). Results are depicted in below Tables 3 and 4, as well as FIGS. 2 and 3.

Data set [3] can be described thus: Netupitant + dexamethasone drug interaction study. It is filed as in vivo, human. On the procedure: The effect of netupitant on orally administered dexamethasone pharmacokinetics was evaluated in this study. This was a randomized, open, 3-period crossover study utilizing an incomplete Latin Square design where subjects were given dexamethasone alone, or oral Netupitant 100 mg., 300 mg. or 450 mg. each given with dexamethasone. Netupitant was given orally on Day 1 only. The dexamethasone regimen for each treatment was 20 mg. orally Day 1, followed by 8 mg. orally every 12 hours from Day 2 through Day 4. Nineteen subjects (12 male and 7 female) completed the study (i.e., all 3 treatment periods).

[4] abbreviates: co-administration of 100 mg netupitant (oral, Day 1) vs dexamethasone alone.
Where [5] appears, read: co-administration of 300 mg netupitant (oral, Day 1) vs dexamethasone alone.
The mark [6] stands for this setting: co-administration of 450 mg netupitant (oral, Day 1) vs dexamethasone alone.

Structures are written as SMILES.

In general, Tmax refers to the time at which the peak concentration occurs. As to `Cl.O=C1c2cccc3c2[C@H](CCC3)CN1[C@@H]1CN2CCC1CC2` [Palonosetron, (3aS)-2-[(S)-1-Azabicyclo[2.2.2]oct-3-yl]-2,3,3a,4,5,6-hexahydro-1-oxo-1Hberiz[de]isoquinoline hydrochloride], in data set [1] (0-24 h), the “Complete Protection, Acute: percent of patients” value was 87.5%; the “No Emesis, Acute: percent of patients” value was 89.7%; the “No Rescue, Acute: percent of patients” value is listed as 97.8%; the “Total Control, Acute: percent of patients” value stood at 71.3%. For the same compound, in data set [1] (0-120 h), the “No Emesis, Overall: percent of patients” value stood at 76.5% and the “No Rescue, Overall: percent of patients” value is 95.6%. Moreover, in data set [1] (25-120 h), the “Complete Protection, Delayed: percent of patients” value was 73.5%; the “No Emesis, Delayed: percent of patients” value turned out to be 80.1%; the “No Rescue, Delayed: percent of patients” value was 97.1%; the “Total Control, Delayed: percent of patients” value came to 52.2%. In data set [1] (HEC (cisplatin) patients), the “CR, Acute Phase, −24 h: Percent of Patients” value is given as 89.7%; the “CR, Delayed Phase, 25-120 h: Percent of Patients” value turned out to be 80.1%; the “CR, Overall Phase, 0-120 h: Percent of Patients” value was 76.5%. Besides, the “No Nausea, Acute: percent of patients” value in data set [1] (maximum VAS<5 mm, 0-24 h) is listed as 75.0%. In addition, the “No Nausea, Overall: percent of patients” value in data set [1] (maximum VAS<5 mm, 0-120 h) is on record as 50.7%. Moreover, the “No Nausea, Delayed: percent of patients” value in data set [1] (maximum VAS<5 mm, 25-120 h) amounted to 53.7%. The “No Significant Nauea, Acute: percent of patients” value in data set [1] (maximum VAS<25 mm, 0-24 h) worked out at 93.4%. Further, the “No Significant Nauea, Overall: percent of patients” value in data set [1] (maximum VAS<25 mm, 0-120 h) is listed as 79.4%. For the same compound, the “No Significant Nauea, Delayed: percent of patients” value in data set [1] (maximum VAS<25 mm, 25-120 h) amounted to 80.9%. Moreover, in data set [1] (no emesis, no rescue therapy and no nausea, 0-120 h), the “Total Control, Overall: percent of patients” value was found to be 50.0%. The “Complete Protection, Overall: percent of patients” value in data set [1] (no emesis, no rescue therapy, no significant nausea, 0-120 h) turned out to be 69.9%. For the same compound, the half-life in data set [2] (read-out: Palonosetron t1/2, z (converted)) was 34.7 h. In addition, the Tmax in data set [2] (read-out: Palonosetron tmax) is 5.02 h.
`C[C@@H]1C[C@H]2[C@@H]3CCC4=CC(=O)C=C[C@]4(C)[C@@]3(F)[C@@H](O)C[C@]2(C)[C@@]1(O)C(=O)CO` [dexamethasone]: the “Dexamethasone Cmin on Days 2-4, fold increase” value in data set [3] (co-administration of 100 mg netupitant) was “approximately 2.8 fold”; in data set [3] (co-administration of 300 mg netupitant), approximately 4.3 fold; in data set [3] (co-administration of 450 mg netupitant) it was approximately 4.6 fold. Further, the “AUC0-24 (Day 1) of dexamethasone, fold increase” value in data set [3] (setting [4]) is 1.5 fold; in data set [3] (setting [5]), 1.7 fold; in data set [3] (setting [6]) it was 1.8 fold. Moreover, the results for the “AUC24-36 (Day 2) of dexamethasone, fold increase” value in data set [3] (setting [4]), in data set [3] (setting [5]) and in data set [3] (setting [6]) were 2.1 fold, 2.4 fold and 2.6 fold, respectively. The results for the “AUC84-108 and AUC84-inf (Day 4) of dexamethasone, fold increase” value in data set [3] (setting [4]), in data set [3] (setting [5]) and in data set [3] (setting [6]) were 1.7 fold, 2.4 fold and 2.7 fold, respectively. The entries for the “Dexamethasone Cmax on Day 1, fold increase” value in data set [3] (co-administration with 100 mg netupitant), in data set [3] (co-administration with 300 mg netupitant) and in data set [3] (co-administration with 450 mg netupitant) were 1.1 fold, 1.1 fold and 1.2 fold, respectively. Further, the “Dexamethasone Cmax on Day 2 and Day 4, fold increase” value in data set [3] (subjects administered netupitant (100, 300 or 450 mg)) was “approximately 1.7 fold”.

For the origin of these results see patent publication US8951969B2, “Compositions and methods for treating centrally mediated nausea and vomiting” (Helsinn Healthcare S.A., priority 2009, dated 2015).
